According to ChEMBL document CHEMBL4052759, “Discovery of DS79182026: A potent orally active hepcidin production inhibitor” (Bioorg Med Chem Lett, 2017):

Columns and labels:
[1] = target: T1, Aurora kinase A (Homo sapiens) (UniProt O14965); experiment: Inhibition of AurA (unknown origin) at 0.078 uM relative to control
T1 sequence (whole entry): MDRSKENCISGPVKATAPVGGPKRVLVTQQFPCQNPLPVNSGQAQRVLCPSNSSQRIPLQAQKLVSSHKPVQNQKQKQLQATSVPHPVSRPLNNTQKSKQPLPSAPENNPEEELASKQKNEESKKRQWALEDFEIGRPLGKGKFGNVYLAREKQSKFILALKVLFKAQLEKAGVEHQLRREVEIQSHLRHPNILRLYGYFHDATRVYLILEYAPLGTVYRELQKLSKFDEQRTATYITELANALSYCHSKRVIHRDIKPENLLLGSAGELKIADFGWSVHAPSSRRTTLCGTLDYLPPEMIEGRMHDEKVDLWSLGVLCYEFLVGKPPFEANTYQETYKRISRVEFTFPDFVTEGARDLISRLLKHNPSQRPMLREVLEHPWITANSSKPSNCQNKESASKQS

[2] = target: Insulin-like growth factor 1 receptor (Homo sapiens) (UniProt P08069); experiment: Inhibition of IGF1R (unknown origin) at 0.078 uM relative to control
Chain of Insulin-like growth factor 1 receptor (Homo sapiens) (P08069 31-736 limits assumed): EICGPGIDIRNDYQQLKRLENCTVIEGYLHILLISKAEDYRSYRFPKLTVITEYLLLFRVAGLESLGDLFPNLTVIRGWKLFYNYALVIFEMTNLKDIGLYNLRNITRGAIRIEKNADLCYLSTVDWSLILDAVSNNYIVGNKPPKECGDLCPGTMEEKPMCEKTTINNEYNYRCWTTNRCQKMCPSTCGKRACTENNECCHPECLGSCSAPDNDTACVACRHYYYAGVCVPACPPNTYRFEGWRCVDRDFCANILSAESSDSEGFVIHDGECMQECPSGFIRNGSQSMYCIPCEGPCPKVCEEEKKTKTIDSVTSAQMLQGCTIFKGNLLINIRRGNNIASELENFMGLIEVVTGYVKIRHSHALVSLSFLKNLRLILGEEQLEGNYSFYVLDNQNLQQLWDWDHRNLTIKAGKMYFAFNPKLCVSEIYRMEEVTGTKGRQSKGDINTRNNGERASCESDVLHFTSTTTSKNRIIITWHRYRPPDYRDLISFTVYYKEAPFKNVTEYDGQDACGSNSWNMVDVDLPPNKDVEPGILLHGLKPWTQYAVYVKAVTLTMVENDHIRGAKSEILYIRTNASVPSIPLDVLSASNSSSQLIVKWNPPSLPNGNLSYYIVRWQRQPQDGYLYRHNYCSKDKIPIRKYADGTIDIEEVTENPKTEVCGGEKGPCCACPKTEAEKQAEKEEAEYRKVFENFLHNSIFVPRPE
Chain of Insulin-like growth factor 1 receptor (Homo sapiens) (P08069 741-1367 limits assumed): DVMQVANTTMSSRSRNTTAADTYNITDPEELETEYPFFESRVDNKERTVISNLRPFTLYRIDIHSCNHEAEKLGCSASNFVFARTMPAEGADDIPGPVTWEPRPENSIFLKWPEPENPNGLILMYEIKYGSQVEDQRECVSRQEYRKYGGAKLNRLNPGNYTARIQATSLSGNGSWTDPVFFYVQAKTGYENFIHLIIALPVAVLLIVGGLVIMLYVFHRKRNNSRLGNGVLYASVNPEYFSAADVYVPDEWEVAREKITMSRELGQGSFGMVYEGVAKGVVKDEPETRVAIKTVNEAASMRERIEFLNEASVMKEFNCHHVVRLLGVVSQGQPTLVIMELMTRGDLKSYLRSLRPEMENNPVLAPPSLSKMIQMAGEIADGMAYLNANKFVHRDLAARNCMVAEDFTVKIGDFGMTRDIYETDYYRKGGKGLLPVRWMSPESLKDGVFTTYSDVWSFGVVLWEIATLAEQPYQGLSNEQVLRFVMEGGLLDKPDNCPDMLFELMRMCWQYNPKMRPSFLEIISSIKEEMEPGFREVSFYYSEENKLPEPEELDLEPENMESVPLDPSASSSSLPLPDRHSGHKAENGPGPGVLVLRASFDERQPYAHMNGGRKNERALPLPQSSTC

[3] = target: T2, Protein kinase C zeta type (Homo sapiens) (UniProt Q05513); experiment: Inhibition of PKC-zeta (unknown origin) at 0.078 uM relative to control
T2 sequence (whole entry): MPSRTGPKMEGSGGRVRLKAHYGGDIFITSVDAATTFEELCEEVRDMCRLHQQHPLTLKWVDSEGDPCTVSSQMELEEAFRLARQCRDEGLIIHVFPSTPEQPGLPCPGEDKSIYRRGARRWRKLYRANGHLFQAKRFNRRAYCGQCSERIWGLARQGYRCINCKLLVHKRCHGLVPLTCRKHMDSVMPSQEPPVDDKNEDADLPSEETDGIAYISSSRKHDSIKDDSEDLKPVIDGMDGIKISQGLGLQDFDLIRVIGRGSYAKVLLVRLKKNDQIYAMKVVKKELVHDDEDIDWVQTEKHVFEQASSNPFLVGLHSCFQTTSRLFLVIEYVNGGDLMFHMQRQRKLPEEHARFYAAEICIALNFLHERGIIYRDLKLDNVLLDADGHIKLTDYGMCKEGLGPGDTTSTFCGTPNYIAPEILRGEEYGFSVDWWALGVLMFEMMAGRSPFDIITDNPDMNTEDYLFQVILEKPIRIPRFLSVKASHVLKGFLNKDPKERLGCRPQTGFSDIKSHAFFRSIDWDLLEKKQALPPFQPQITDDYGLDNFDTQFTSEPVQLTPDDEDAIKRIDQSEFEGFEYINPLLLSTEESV

[4] = target: Serine/threonine-protein kinase MARK1 (Homo sapiens) (UniProt Q9P0L2); experiment: Inhibition of MARK1 (unknown origin) at 0.078 uM relative to control
[5] = target: Vascular endothelial growth factor receptor 1 (Homo sapiens) (UniProt P17948); experiment: Inhibition of FLT1 (unknown origin) at 0.49 uM relative to control
Chain of Vascular endothelial growth factor receptor 1 (Homo sapiens) (P17948 whole entry): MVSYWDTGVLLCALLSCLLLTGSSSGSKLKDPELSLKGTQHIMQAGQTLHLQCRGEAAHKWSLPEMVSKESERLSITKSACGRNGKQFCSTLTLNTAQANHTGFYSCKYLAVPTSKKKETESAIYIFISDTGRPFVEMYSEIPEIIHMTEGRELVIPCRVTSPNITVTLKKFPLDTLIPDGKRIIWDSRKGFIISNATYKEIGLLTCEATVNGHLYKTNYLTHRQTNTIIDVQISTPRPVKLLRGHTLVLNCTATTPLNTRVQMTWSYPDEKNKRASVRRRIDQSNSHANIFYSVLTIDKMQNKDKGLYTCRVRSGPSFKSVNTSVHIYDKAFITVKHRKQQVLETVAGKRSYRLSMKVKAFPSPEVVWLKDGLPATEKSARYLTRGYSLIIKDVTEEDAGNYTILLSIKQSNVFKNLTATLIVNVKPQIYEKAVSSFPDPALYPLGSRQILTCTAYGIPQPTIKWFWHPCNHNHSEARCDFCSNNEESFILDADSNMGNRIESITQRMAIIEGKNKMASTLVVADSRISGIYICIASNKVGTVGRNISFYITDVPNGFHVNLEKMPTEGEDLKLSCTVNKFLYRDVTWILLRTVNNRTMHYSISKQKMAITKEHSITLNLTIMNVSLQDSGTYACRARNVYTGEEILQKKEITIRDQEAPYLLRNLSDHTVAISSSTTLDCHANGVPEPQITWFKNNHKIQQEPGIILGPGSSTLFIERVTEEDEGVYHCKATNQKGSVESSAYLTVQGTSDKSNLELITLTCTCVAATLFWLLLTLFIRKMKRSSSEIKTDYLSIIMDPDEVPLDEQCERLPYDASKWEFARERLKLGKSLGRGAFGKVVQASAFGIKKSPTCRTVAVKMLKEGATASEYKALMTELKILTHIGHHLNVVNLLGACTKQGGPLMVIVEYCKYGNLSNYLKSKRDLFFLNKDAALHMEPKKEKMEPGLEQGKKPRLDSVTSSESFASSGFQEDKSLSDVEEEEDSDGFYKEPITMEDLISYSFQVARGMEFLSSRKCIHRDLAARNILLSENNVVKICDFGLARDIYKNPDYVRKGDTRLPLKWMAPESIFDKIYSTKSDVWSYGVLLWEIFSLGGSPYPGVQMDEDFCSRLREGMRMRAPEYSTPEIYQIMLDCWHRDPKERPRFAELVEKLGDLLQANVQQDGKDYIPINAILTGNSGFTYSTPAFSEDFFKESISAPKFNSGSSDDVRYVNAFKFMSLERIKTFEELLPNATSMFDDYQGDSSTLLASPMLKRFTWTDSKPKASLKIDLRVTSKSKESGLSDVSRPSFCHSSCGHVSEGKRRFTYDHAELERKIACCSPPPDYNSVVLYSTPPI

[6] = target: T3, Serine/threonine-protein kinase Sgk1 (Homo sapiens) (UniProt O00141); experiment: Inhibition of SGK1 (unknown origin) at 0.49 uM relative to control
T3 sequence (whole entry): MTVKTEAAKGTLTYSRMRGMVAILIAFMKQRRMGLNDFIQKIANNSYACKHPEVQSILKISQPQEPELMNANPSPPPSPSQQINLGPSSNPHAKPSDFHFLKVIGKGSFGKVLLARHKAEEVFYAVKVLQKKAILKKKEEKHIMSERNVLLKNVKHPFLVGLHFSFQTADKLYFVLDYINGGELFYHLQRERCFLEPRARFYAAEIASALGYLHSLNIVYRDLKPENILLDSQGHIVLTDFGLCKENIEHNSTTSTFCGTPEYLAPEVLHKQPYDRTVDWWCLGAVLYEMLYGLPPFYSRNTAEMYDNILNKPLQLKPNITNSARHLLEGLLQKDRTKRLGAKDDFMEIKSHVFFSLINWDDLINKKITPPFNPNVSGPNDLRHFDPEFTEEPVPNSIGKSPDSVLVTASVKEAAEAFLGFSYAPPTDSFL

[7] = target: Cytoplasmic tyrosine-protein kinase BMX (Homo sapiens) (UniProt P51813); experiment: Inhibition of BMX (unknown origin) at 0.49 uM relative to control
[8] = target: Tyrosine-protein kinase Fyn (Homo sapiens) (UniProt P06241); experiment: Inhibition of FYN (unknown origin) at 0.49 uM relative to control
[9] = system: Mast/stem cell growth factor receptor Kit (Homo sapiens), P10721 [T670I]; experiment: Inhibition of KIT T670I mutant (unknown origin) at 0.49 uM relative to control
[10] = target: CDK6/cyclin D3 (Homo sapiens) (UniProt P30281+Q00534); experiment: Inhibition of CDK6/CyclinD3 (unknown origin) at 0.49 uM relative to control; type: protein-complex assay
[11] = target: Ephrin type-A receptor 1 (Homo sapiens) (UniProt P21709); experiment: Inhibition of EPHA1 (unknown origin) at 0.49 uM relative to control
Chain of Ephrin type-A receptor 1 (Homo sapiens) (P21709 whole entry): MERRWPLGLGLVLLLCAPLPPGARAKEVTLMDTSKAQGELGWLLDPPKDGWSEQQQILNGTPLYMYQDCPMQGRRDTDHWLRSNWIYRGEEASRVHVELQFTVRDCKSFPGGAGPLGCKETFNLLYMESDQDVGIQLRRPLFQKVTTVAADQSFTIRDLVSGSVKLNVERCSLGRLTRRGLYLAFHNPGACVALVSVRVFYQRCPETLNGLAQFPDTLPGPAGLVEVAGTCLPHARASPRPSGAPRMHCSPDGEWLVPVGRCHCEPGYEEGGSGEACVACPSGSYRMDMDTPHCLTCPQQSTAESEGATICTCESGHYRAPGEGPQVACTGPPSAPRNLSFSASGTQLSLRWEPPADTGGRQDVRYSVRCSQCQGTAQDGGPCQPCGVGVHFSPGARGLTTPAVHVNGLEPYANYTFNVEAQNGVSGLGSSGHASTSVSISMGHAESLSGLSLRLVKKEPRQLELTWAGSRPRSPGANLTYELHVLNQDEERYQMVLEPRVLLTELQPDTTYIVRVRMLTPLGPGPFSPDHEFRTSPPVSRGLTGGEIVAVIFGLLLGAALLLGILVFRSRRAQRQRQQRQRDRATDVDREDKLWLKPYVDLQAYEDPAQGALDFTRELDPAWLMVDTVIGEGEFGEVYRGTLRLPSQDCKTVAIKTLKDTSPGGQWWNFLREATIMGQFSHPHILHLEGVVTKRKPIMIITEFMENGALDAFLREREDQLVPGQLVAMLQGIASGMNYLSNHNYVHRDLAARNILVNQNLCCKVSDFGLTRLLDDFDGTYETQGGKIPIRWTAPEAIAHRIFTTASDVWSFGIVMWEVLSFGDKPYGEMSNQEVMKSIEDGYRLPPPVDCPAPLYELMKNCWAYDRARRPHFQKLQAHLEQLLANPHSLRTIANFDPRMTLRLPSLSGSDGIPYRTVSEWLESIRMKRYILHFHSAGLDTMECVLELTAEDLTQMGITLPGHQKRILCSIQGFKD

[12] = target: Fibroblast growth factor receptor 1 (Homo sapiens) (UniProt P11362); experiment: Inhibition of FGFR1 (unknown origin) at 0.45 uM relative to control
[13] = target: Casein kinase I isoform alpha (Homo sapiens) (UniProt P48729); experiment: Inhibition of CSNK1A1 (unknown origin) at 0.45 uM relative to control
Chain of Casein kinase I isoform alpha (Homo sapiens) (P48729 2-337 limits assumed): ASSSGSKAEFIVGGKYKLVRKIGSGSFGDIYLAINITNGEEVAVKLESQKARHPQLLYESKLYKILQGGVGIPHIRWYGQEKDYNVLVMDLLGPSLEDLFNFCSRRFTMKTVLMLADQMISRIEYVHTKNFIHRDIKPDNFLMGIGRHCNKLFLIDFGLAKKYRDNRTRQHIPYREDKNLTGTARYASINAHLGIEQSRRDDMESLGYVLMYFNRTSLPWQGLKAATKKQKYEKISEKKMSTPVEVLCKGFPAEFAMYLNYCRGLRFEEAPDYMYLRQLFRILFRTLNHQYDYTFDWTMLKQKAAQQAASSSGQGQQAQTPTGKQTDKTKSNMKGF

[14] = target: Ephrin type-A receptor 2 (Homo sapiens) (UniProt P29317); experiment: Inhibition of EPHA2 (unknown origin) at 0.45 uM relative to control
[15] = target: Vascular endothelial growth factor receptor 3 (Homo sapiens) (UniProt P35916); experiment: Inhibition of FLT4 (unknown origin) at 0.45 uM relative to control
[16] = target: T4, MAP kinase-activated protein kinase 5 (Homo sapiens) (UniProt Q8IW41); experiment: Inhibition of PRAK (unknown origin) at 0.45 uM relative to control
T4 sequence (whole entry): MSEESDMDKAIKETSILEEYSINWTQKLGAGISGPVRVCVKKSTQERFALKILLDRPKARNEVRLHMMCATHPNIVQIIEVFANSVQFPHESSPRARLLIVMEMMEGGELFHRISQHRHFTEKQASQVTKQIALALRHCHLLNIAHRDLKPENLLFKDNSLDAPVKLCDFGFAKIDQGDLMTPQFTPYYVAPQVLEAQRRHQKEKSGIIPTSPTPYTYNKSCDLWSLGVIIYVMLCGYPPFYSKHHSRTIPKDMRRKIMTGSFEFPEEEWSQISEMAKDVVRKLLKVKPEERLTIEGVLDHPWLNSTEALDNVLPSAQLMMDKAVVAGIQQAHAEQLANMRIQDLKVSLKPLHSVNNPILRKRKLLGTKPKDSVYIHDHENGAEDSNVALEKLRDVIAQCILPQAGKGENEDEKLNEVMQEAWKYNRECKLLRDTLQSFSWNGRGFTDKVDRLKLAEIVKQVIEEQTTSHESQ

[17] = target: Protein kinase C delta type (Homo sapiens) (UniProt Q05655); experiment: Inhibition of PKC-delta (unknown origin) at 0.45 uM relative to control
Chain of Protein kinase C delta type (Homo sapiens) (Q05655 whole entry, looked up): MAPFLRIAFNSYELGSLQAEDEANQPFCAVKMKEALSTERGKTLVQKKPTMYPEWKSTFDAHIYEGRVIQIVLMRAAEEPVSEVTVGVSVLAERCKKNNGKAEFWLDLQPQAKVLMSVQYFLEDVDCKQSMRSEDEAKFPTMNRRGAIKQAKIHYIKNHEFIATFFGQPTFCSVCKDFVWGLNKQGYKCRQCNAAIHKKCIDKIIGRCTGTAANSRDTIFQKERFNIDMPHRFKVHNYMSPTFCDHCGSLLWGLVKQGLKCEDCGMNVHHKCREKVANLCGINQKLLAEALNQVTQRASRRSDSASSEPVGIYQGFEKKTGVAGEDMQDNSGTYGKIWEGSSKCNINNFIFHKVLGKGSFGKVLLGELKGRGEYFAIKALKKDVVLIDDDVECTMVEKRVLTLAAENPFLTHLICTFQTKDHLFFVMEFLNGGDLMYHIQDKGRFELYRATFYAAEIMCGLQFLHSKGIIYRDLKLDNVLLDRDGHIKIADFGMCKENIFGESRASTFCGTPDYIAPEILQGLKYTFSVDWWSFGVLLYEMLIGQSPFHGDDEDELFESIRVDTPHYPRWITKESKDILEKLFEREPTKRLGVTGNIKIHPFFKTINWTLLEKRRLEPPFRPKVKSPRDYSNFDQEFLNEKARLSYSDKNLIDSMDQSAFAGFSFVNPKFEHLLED

Q: Which inhibition [1] does the source give for `COC(=O)Nc1noc2cc(-c3c(-c4ccccn4)n[nH]c3C)ccc12` here?
A: -1.7%

Q: What about the inhibition [2] of the same compound?
A: 2.3%

Q: And the inhibition [3]?
A: 2.7%

Q: What about the inhibition [4] of the same compound?
A: 3.3%

Q: For `Cc1[nH]nc(C2CC2)c1-c1ccc2c(NC(=O)C3CC3)noc2c1`, which inhibition [5] is on record?
A: -2.3%

Q: And the inhibition [6]?
A: 2.3%

Q: And the inhibition [7]?
A: -0.7%

Q: What about the inhibition [8] of the same compound?
A: 2.7%

Q: And the inhibition [9]?
A: -1.7%

Q: And the inhibition [10]?
A: 1.7%

Q: And the inhibition [11]?
A: 3.3%

Q: How did the inhibition [12] turn out when `Cc1n[nH]c(C)c1-c1ccc2c(NC(=O)c3ccc(N4CCN(C)CC4)cc3)n[nH]c2c1` was run?
A: 35%

Q: What about the inhibition [13] of the same compound?
A: 2.3%

Q: And the inhibition [14]?
A: 8%

Q: And the inhibition [15]?
A: 10%

Q: And the inhibition [16]?
A: -1.7%

Q: What about the inhibition [17] of the same compound?
A: 5.3%
